# Experimental data reported in patent US12344610B2, “APOL1 inhibitors and methods of use” (Maze Therapeutics, Inc., priority 2022, dated 2025).
# Assays:
# [1] = tested on: Trypanosoma brucei Lister 427 VSG221 with APOL1 G0 recombinant protein; assay: APOL1 G0 trypanosome cell rescue assay (Example B5); assay type: cell-based; details: Trypanosoma brucei, 20 h, read-out: APOL1 G0 Trypanosome Rescue EC50, Trypanosoma brucei Lister 427 VSG221 with APOL1 G0 recombinant protein, 20 hours, CellTiter-Glo; geometric mean of at least 2 assay runs; † = single assay run
# Outline: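 Viability read by CellTiter-Glo luminescence after 20 h co-incubation (37° C, 5% CO2) of 250 trypanosomes/well in modified HMI-9 with test compound (duplicate 11-point, 2-fold dilutions, 0.4% DMSO) and APOL1 protein, […]. Protein: mature residues 28-398, E. coli inclusion-body refolded, tag cleaved, in DDM.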
# [2] = tested on: HEK293 clonal cell line overexpressing APOL1 G1; assay: APOL1 G1 HEK293 cell rescue assay (Example B3); assay type: cell-based; details: Homo sapiens, HEK293, HEK293 clonal line overexpressing APOL1 G1; geometric mean of at least 2 runs; † = single run; ¥ = concentration at 50% rescue estimated (no sigmoidal curve)
# Outline: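 Rescue of cell death caused by APOL1 G1 overexpression was measured in a clonal HEK293 line. Compounds were tested in duplicate on one plate, and EC50s were geometric means across at least two runs on different days. Some values are estimated 50%-rescue concentrations where curve fitting failed.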
Structure (SMILES),EC50 [1] [nM],EC50 [2] [nM]
"Cn1ncc2cc(OCCN3CCC4(CC3)C(=O)Nc3ccccc34)ccc21 [Compound 70, 1′-{2-[(1-methyl-1H-indazol-5-yl)oxy]ethyl}-1,2-dihydrospiro[indole-3,4′-piperidin]-2-one]",> 4000,> 2530
"CN(c1ccc(OCCN2CCC3(CC2)C(=O)Nc2ccc(Cl)cc23)cc1)S(C)(=O)=O [Compound 76, N-[4-(2-{5-chloro-2-oxo-1,2-dihydrospiro[indole-3,4′-piperidin]-1′-yl}ethoxy)phenyl]-N-methylmethanesulfonamide]",106,190
"CC(=O)N1CCCc2cc(OCCN3CCC4(CC3)C(=O)N(C)c3ccccc34)ccc21 [Compound 36, 1′-{2-[(1-acetyl-1,2,3,4-tetrahydroquinolin-6-yl)oxy]ethyl}-1-methyl-1,2-dihydrospiro[indole-3,4′-piperidin]-2-one]",> 4000,> 2150
"Cc1cc(OCCN2CCC3(CC2)C(=O)Nc2ccc(Cl)cc23)ccc1C(N)=O [Compound 49, 4-(2-{5-chloro-2-oxo-1,2-dihydrospiro[indole-3,4′-piperidin]-1′-yl}ethoxy)-2-methylbenzamide]",213,260
"O=C1Nc2ccc(Cl)cc2C12CCN(CCOc1ccc(S(=O)(=O)C3CC3)cc1)CC2 [Compound 43, 5-chloro-1′-{2-[4-(cyclopropanesulfonyl)phenoxy]ethyl}-1,2-dihydrospiro[indole-3,4′-piperidin]-2-one]",52.2,131
"Cc1ccc2c(c1)C1(CCN(CCOc3ccc(S(C)(=O)=O)cc3)CC1)C(=O)N2 [Compound 66, 1′-[2-(4-methanesulfonylphenoxy)ethyl]-5-methyl-1,2-dihydrospiro[indole-3,4′-piperidin]-2-one]",246,323
"[2H]C([2H])([2H])[C@]1(O)C[C@@H](N2C(=O)CCc3cc(OCCN4CCC5(CC4)C(=O)Nc4ccc(Cl)cc45)cnc32)C1 [Compound 461, 5-chloro-1′-[2-({7-oxo-8-[(cis)-3-hydroxy-3-(^2H3)methylcyclobutyl]-5,6,7,8-tetrahydro-1,8-naphthyridin-3-yl}oxy)ethyl]-1,2-dihydrospiro[indole-3,4′-piperidin]-2-one]",69.2,80.9
"CN(c1ccc(OCCN2CCC3(CC2)C(=O)Nc2ccc(C#N)cc23)cc1)S(C)(=O)=O [Compound 75, N-[4-(2-{5-cyano-2-oxo-1,2-dihydrospiro[indole-3,4′-piperidin]-1′-yl}ethoxy)phenyl]-N-methylmethanesulfonamide]",383,406
"CP(C)(=O)C1(c2ccc(OCCN3CCC4(CC3)C(=O)Nc3ccc(Cl)cc34)cc2)CC1 [Compound 343, 5-chloro-1′-(2-{4-[1-(dimethylphosphoryl)cyclopropyl]phenoxy}ethyl)-1,2-dihydrospiro[indole-3,4′-piperidin]-2-one]",174,431
"C[C@]1(O)C[C@@H](n2ccc3cc(OCCN4CCC5(CC4)C(=O)Nc4ccc(C#N)cc45)cnc32)C1 [Compound 410, 2-oxo-1′-[2-({1-[(cis)-3-hydroxy-3-methylcyclobutyl]-1H-pyrrolo[2,3-b]pyridin-5-yl}oxy)ethyl]-1,2-dihydrospiro[indole-3,4′-piperidine]-5-carbonitrile]",206,93.3
"C[C@]1(O)C[C@@H](n2nnc3cc(OCCN4CCC5(CC4)C(=O)Nc4ccc(Cl)cc45)cnc32)C1 [Compound 440, 5-chloro-1′-[2-({3-[(cis)-3-hydroxy-3-methylcyclobutyl]-3H-[1,2,3]triazolo[4,5-b]pyridin-6-yl}oxy)ethyl]-1,2-dihydrospiro[indole-3,4′-piperidin]-2-one]",160,139
"O=C1Nc2ccc(Cl)cc2C12CCN(CCOc1cnc(C3(CO)CC3)nc1)CC2 [Compound 333, 5-chloro-1′-[2-({2-[1-(hydroxymethyl)cyclopropyl]pyrimidin-5-yl}oxy)ethyl]-1,2-dihydrospiro[indole-3,4′-piperidin]-2-one]",152,98.6
"Cc1nc(-c2ccc(OCCN3CCC4(CC3)C(=O)N(C)c3ccccc34)cc2)no1 [Compound 35, 1-methyl-1′-{2-[4-(5-methyl-1,2,4-oxadiazol-3-yl)phenoxy]ethyl}-1,2-dihydrospiro[indole-3,4′-piperidin]-2-one]",> 4000,488
"O=C1Nc2ccccc2C12CCN(CCOc1ccc(S(=O)(=O)C(F)F)cc1)CC2 [Compound 44, 1′-[2-(4-difluoromethanesulfonylphenoxy)ethyl]-1,2-dihydrospiro[indole-3,4′-piperidin]-2-one]",331,478
"CCC1(O)CN(c2ncc(OCCN3CCC4(CC3)C(=O)Nc3ccc(Cl)cc34)cn2)C1 [Compound 397, 5-chloro-1′-(2-{[2-(3-ethyl-3-hydroxyazetidin-1-yl)pyrinlidin-5-yl]oxy}ethyl)-1,2-dihydrospiro[indole-3,4′-piperidin]-2-one]",226,105
"C[C@]1(O)C[C@@H](n2ccc3cc(OCCN4CCC5(CC4)C(=O)Nc4ccc(Cl)cc45)cnc32)C1 [Compound 349, 5-chloro-1′-[2-({1-[(cis)-3-hydroxy-3-methylcyclobutyl]-1H-pyrrolo[2,3-b]pyridin-5-yl}oxy)ethyl]-1,2-dihydrospiro[indole-3,4′-piperidin]-2-one]",64.6,73.5
"CN1C(=O)Cc2cc(OCCN3CCC4(CC3)C(=O)Nc3ccc(Cl)cc34)ccc21 [Compound 65, 5-chloro-1′-{2-[(1-methyl-2-oxo-2,3-dihydro-1H-indol-5-yl)oxy]ethyl}-1,2-dihydrospiro[indole-3,4′-piperidin]-2-one]",318,351
"CN1C(=O)CCc2cc(OCCN3CCC4(CC3)C(=O)Nc3ccc(Cl)cc34)cnc21 [Compound 78, 5-chloro-1′-{2-[(8-methyl-7-oxo-5,6,7,8-tetrahydro-1,8-naphthyridin-3-yl)oxy]ethyl}-1,2-dihydrospiro[indole-3,4′-piperidin]-2-one]",95.2,128
"C[C@]1(O)C[C@@H](n2c(=O)[nH]c3cc(OCCN4CCC5(CC4)C(=O)Nc4ccc(C#N)cc45)cc(C(F)(F)F)c32)C1 [Compound 470, 2-oxo-1′-[2-({2-oxo-1-[(cis)-3-hydroxy-3-methylcyclobutyl]-7-(trifluoromethyl)-2,3-dihydro-1H-1,3-benzodiazol-5-yl}oxy)ethyl]-1,2-dihydrospiro[indole-3,4′-piperidine]-5-carbonitrile]",8.82,47.6
"[2H]C([2H])(Oc1cnc2c(c1)CCC(=O)N2[C@H]1C[C@@](C)(O)C1)C([2H])([2H])N1CCC2(CC1)C(=O)Nc1ccc(Cl)cc12 [Compound 426, 5-chloro-1′-[2-({7-oxo-8-[(cis)-3-hydroxy-3-methylcyclobutyl]-5,6,7,8-tetrahydro-1,8-naphthyridin-3-yl}oxy)(1,1,2,2-^2H4)ethyl]-1,2-dihydrospiro[indole-3,4′-piperidin]-2-one]",71,80.3
"C[C@]1(O)C[C@@H](n2cc3cc(OCCN4CCC5(CC4)C(=O)Nc4ccc(Cl)cc45)cc(C(F)(F)F)c3n2)C1 [Compound 427, 5-chloro-1′-[2-({2-[(cis)-3-hydroxy-3-methylcyclobutyl]-7-(trifluoromethyl)-2H-indazol-5-yl}oxy)ethyl]-1,2-dihydrospiro[indole-3,4′-piperidin]-2-one]",15.6,35.8
"CC(c1ncc(OCCN2CCC3(CC2)C(=O)Nc2ccc(Cl)cc23)cn1)S(C)(=O)=O (stereo not shown) [Compound 1, 5-Chloro-1′-(2-{[2-(1-methanesulfonylethyl)pyrimidin-5-yl]oxy}ethyl)-1,2-dihydrospiro[indole-3,4′-piperidin]-2-one]",225,302
"CNC(=O)N1CCCc2cc(OCCN3CCC4(CC3)C(=O)Nc3ccc(Cl)cc34)ccc21 [Compound 60, 6-(2-{5-chloro-2-oxo-1,2-dihydrospiro[indole-3,4′-piperidin]-1′-yl}ethoxy)-N-methyl-1,2,3,4-tetrahydroquinoline-1-carboxamide]",189,183
"CS(=O)(=O)c1ccc(OCCN2CCC3(CC2)C(=O)Nc2ccc(Cl)cc23)cc1C#N [Compound 50, 5-(2-{5-chloro-2-oxo-1,2-dihydrospiro[indole-3,4′-piperidin]-1′-yl}ethoxy)-2-methanesulfonylbenzonitrile]",30,91.1
"C[C@]1(O)C[C@@H](N2C(=O)Cc3cc(OCCN4CCC5(CC4)C(=O)Nc4ccc(C(F)F)cc45)cnc32)C1 [Compound 346, 5-(difluoromethyl)-1′-[2-({2-oxo-1-[(cis)-3-hydroxy-3-methylcyclobutyl]-1H,2H,3H-pyrrolo[2,3-b]pyridin-5-yl]oxy)ethyl]-1,2-dihydrospiro[indole-3,4′-piperidin]-2-one]",83.6,83.7
"CS(C)(=O)=Nc1ccc(OCCN2CCC3(CC2)C(=O)Nc2ccc(C#N)cc23)cc1 [Compound 77, 1′-[2-(4-{[dimethyl(oxo)-λ^6-sulfanylidene]amino}phenoxy)ethyl]-2-oxo-1,2-dihydrospiro[indole-3,4′-piperidine]-5-carbonitrile]",> 4000,> 4760
